Where two headings read alike, the source gives them in different places.
What was measured:
CYP3A4 = CYP3A4 (Homo sapiens (Human), UniProt P08684); assay: CYP Inhibition Assay, CYP3A4; format: in vitro ADME; conditions: human liver microsomes;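 further: CYP probe substrate held near its Km, inhibition judged from metabolite formation quantified by LC-MS/MS against a standard curve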
CYP2D6 = CYP2D6 (Homo sapiens (Human), UniProt P10635); assay: CYP Inhibition Assay, CYP2D6; format: in vitro ADME; conditions: human liver microsomes
[1] = target: BACE1 (Aβ40 in HEK293-APPswe/lon cells) (Homo sapiens (Human), UniProt P56817); assay: BACE Inhibitor Whole Cell IC50 Determination Using HEK293-APPswe/lon Cells (Aβ40); format: cell-based; conditions: 4 hours
[2] = target: soluble human BACE1 catalytic domain (Homo sapiens (Human), UniProt P56817); assay: BACE1 HTRF FRET Assay; format: biochemical; conditions: Ki calculated from IC50 with Cheng-Prusoff equation;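 further: cleavage of a quenched APP Swedish mutant peptide (QSY7 quencher, Europium donor) measured as rise in 620 nm fluorescence after 1.5 h at 30 °C, inhibition suppresses signal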
CYP2C9 = CYP2C9 (Homo sapiens (Human), UniProt P11712); assay: CYP Inhibition Assay, CYP2C9; format: in vitro ADME; conditions: human liver microsomes;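 further: probe substrate held close to its Km, with metabolite formation quantified by LC-MS/MS against a calibration curve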
hERG [3] = target: T1, hERG (Homo sapiens (Human), UniProt Q12809); assay: hERG screening, Rubidium Efflux (hERG-CHO cells); format: cell-based; conditions: CHO cells expressing hERG; for inhibition at 30 min, 1.5 uG/mL: pH 7.4, 1.5 uG/mL, read-out: HERG Rb efflux % Inhib 1.5 uG/mL; for inhibition at 30 min, 5 uG/mL: pH 7.4, 5 uG/mL, read-out: HERG Rb efflux % Inhib 5 uG/mL
human liver Cathepsin D = human liver Cathepsin D (Homo sapiens (Human), UniProt P07339); assay: Human Cathepsin D FRET Assay; format: biochemical; conditions: selectivity with respect to Cathepsin D vs BACE1
hERG [4] = target: T1, hERG; assay: hERG screening, IonWorks Quattro (hERG L929 cells); format: cell-based; conditions: L929 cells expressing hERG; for inhibition at 5 min, 1 uM: read-out: HERG Ionworks % Inhib 1 uM; for inhibition at 5 min, 10 uM: read-out: HERG Ionworks % Inhib 10 uM
[5] = 30 min pre-incubation with NADPH, read-out: CYP 3A4 IC50 pre
[6] = co-incubation, read-out: CYP 3A4 IC50 co
[7] = 30 min pre-incubation with NADPH, read-out: CYP 2D6 IC50 pre
[8] = co-incubation, read-out: CYP 2D6 IC50 co
[9] = 30 min pre-incubation with NADPH, read-out: CYP 2C9 IC50 pre
[10] = co-incubation, read-out: CYP 2C9 IC50 co

CYP3A4, sequence (P08684 whole entry): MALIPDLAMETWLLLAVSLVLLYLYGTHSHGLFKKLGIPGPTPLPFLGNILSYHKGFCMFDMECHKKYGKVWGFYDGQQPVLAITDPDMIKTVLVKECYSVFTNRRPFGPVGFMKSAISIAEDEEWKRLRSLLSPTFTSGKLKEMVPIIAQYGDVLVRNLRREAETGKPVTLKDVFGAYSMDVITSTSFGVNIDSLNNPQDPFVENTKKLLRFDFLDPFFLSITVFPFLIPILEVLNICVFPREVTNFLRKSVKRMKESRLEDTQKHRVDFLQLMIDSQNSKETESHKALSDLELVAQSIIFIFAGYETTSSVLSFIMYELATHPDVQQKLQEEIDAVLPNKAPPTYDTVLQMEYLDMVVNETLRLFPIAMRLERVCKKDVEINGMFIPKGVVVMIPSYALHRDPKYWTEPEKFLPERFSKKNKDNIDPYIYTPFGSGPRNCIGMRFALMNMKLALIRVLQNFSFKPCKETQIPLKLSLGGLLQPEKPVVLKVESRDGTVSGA
CYP2C9, sequence (P11712 whole entry): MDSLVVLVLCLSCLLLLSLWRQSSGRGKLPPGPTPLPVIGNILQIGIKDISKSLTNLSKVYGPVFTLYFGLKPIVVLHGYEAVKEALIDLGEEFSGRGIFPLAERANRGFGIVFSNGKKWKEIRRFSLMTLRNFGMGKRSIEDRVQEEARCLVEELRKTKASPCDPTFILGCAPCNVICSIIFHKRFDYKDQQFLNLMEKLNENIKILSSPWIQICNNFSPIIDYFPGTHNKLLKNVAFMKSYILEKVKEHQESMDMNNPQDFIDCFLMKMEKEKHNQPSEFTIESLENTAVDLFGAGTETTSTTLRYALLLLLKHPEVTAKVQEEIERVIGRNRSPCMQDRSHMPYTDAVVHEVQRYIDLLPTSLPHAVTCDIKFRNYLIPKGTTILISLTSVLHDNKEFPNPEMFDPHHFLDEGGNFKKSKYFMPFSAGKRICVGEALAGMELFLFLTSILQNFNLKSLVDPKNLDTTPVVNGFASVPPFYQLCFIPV
CYP2D6, sequence (P10635 whole entry): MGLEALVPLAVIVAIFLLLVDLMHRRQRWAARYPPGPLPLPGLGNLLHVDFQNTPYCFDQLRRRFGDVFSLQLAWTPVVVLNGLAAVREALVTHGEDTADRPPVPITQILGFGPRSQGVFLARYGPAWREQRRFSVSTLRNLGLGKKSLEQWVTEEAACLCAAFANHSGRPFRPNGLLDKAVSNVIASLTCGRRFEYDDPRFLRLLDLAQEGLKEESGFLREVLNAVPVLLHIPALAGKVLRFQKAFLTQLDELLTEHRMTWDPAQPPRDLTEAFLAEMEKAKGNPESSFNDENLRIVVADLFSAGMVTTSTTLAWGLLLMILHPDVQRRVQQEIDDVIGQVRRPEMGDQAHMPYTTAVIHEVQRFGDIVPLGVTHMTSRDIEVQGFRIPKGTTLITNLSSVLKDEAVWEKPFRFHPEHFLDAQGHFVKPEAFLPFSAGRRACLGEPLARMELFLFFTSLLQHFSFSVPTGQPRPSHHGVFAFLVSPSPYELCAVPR
BACE1 (Aβ40 in HEK293-APPswe/lon cells), sequence (P56817 46-501): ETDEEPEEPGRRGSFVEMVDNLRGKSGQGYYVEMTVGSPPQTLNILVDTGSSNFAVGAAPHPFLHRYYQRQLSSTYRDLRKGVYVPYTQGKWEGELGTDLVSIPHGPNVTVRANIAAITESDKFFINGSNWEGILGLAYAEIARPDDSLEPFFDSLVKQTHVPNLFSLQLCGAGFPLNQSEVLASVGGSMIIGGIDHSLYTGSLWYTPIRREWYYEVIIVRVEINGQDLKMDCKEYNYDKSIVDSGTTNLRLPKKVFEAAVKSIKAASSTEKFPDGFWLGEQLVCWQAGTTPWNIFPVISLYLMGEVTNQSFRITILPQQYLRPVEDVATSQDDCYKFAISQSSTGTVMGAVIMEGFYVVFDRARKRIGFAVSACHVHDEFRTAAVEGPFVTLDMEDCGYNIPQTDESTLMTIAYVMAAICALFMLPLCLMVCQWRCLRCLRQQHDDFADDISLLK
soluble human BACE1 catalytic domain, sequence (P56817 75-416): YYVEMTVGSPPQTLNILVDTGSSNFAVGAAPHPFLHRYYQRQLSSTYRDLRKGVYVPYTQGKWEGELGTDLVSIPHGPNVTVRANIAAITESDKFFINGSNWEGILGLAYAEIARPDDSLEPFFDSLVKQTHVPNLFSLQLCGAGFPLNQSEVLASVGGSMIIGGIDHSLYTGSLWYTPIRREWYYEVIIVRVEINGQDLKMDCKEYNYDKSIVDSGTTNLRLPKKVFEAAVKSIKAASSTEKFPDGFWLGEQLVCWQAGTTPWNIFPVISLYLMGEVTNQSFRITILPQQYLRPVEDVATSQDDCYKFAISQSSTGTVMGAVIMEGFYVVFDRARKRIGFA
T1 sequence (Q12809 whole entry): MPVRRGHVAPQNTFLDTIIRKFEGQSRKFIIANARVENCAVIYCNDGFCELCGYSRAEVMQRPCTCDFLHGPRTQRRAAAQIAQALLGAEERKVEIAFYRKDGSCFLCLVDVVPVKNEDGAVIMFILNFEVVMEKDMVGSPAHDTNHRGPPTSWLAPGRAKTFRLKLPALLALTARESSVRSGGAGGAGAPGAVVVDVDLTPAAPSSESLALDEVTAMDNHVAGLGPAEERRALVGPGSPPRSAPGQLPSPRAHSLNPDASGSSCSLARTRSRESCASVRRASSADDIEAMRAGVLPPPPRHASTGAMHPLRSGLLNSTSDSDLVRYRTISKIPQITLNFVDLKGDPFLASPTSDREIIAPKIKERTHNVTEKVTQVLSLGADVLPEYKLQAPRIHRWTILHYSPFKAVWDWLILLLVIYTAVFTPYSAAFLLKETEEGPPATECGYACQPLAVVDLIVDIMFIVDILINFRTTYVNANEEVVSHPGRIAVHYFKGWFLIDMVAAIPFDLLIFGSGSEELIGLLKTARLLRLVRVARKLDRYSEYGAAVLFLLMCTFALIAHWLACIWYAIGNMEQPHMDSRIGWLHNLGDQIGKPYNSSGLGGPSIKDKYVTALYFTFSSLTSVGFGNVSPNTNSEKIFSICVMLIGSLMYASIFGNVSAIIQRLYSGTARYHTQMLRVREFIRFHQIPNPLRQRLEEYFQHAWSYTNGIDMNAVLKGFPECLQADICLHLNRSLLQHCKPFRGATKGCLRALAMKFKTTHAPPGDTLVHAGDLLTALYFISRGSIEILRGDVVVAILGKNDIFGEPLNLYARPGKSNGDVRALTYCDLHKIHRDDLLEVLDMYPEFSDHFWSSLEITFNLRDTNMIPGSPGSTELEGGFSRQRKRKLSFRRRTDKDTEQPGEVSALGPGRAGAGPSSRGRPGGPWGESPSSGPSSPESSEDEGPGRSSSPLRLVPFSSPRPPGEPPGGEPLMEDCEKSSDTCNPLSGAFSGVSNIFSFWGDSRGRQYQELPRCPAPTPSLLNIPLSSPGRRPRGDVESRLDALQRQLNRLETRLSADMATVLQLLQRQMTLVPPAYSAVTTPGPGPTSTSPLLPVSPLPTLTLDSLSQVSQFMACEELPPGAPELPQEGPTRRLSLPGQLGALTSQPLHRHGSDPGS
human liver Cathepsin D, sequence (P07339 65-412): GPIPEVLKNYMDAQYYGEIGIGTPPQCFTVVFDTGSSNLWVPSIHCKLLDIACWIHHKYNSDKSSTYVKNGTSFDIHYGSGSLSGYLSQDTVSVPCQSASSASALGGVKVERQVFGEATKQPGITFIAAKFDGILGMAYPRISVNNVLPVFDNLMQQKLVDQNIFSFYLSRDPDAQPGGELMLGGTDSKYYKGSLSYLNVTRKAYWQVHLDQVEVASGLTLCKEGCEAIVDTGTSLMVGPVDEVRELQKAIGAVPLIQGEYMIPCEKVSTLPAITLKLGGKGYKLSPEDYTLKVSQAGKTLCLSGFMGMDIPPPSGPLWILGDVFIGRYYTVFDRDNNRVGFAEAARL
human liver Cathepsin D, sequence (P07339 169-412): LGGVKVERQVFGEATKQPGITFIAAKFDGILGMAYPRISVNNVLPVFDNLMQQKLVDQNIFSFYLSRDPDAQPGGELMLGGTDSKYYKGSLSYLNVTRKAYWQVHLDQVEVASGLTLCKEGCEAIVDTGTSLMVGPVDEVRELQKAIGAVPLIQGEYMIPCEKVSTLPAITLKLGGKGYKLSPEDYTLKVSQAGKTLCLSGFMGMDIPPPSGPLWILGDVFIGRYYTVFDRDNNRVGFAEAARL

IC50 (CYP3A4; [5]) [µM]	IC50 (CYP3A4; [6]) [µM]	IC50 (CYP2D6; [7]) [µM]	IC50 (CYP2D6; [8]) [µM]	IC50 [1] [µM]	Ki [2] [µM]	IC50 (CYP2C9; [9]) [µM]	IC50 (CYP2C9; [10]) [µM]	CathD Selectivity (human liver Cathepsin D)	SMILES	inhibition at 30 min, 1.5 uG/mL (hERG [3]) [%]	inhibition at 30 min, 5 uG/mL (hERG [3]) [%]	inhibition at 5 min, 1 uM (hERG [4]) [%]	inhibition at 5 min, 10 uM (hERG [4]) [%]
> 30	> 30	~30	23.3	0.114	0.064	> 30	> 30	–	Cc1nc(N2C[C@H]3C(=O)N(C)C(=N)N[C@@]3(c3ccc(F)cc3)C2)nc(C)c1F [Example 28]	13	14	–	–
> 30	> 30	> 30	> 30	0.022	0.0061	> 30	> 30	163	CCc1nc(N2C[C@H]3C(=O)N(C)C(=N)N[C@@]3(c3ccc(F)cc3)C2)nc(OC)c1F [Example 30]	–	–	2	31
> 20	> 20	> 20	> 20	0.031	0.0069	> 20	> 20	596	CCc1nc(N2C[C@H]3C(=O)N(C)C(=N)N[C@@]3(c3cc(F)ccc3F)C2)nc(OC)c1F [Example 31]	–	–	21	88
> 20	> 20	> 20	> 20	0.026	0.0053	> 20	> 20	310	CCc1nc(N2C[C@H]3C(=O)N(C)C(=N)N[C@@]3(c3ccc(F)cc3F)C2)nc(OC)c1F [Example 32]	–	–	19	95
> 20	> 20	> 20	> 20	0.063	0.014	> 20	> 20	1202	COc1nc(N2C[C@H]3C(=O)N(C)C(=N)N[C@@]3(c3cccc(C#N)c3)C2)nc(C)c1F [Example 36]	–	–	3	37

Further lines, the compound ahead of its results:

SMILES	IC50 (CYP3A4; [5]) [µM]	IC50 (CYP3A4; [6]) [µM]	IC50 (CYP2D6; [7]) [µM]	IC50 (CYP2D6; [8]) [µM]	IC50 [1] [µM]	Ki [2] [µM]	IC50 (CYP2C9; [9]) [µM]	IC50 (CYP2C9; [10]) [µM]	CathD Selectivity (human liver Cathepsin D)	inhibition at 30 min, 1.5 uG/mL (hERG [3]) [%]	inhibition at 30 min, 5 uG/mL (hERG [3]) [%]	inhibition at 5 min, 1 uM (hERG [4]) [%]	inhibition at 5 min, 10 uM (hERG [4]) [%]
COc1nc(N2C[C@H]3C(=O)N(C)C(N)=N[C@@]3(c3c(F)cc(F)c(F)c3F)C2)nc(C)c1F [Example 29]	–	–	> 30	> 30	–	–	> 30	> 30	–	-4	3	–	–
COc1nc(N2C[C@H]3C(=O)N(C)C(=N)N[C@@]3(c3cc(F)ccc3F)C2)nc(C2CC2)c1F [Example 34]	> 20	> 20	> 20	> 20	0.086	0.0056	> 20	> 20	88	–	–	7	65
COc1nc(N2C[C@H]3C(=O)N(C)C(=N)N[C@@]3(c3cc(F)ccc3F)C2)nc(C2CC2)c1Cl [Example 35]	~20	> 20	> 20	> 20	0.09	0.0065	~20	~20	634	–	–	5	23
COc1nc(N2C[C@H]3C(=O)N(C)C(=N)N[C@@]3(c3ccc(F)cc3F)C2)nc(C2CC2)c1F [Example 38]	> 20	> 20	> 20	> 20	0.031	0.0027	> 20	> 20	209	–	–	12	63
COc1nc(N2C[C@H]3C(=O)N(C)C(=N)N[C@@]3(c3ccc(F)cc3F)C2)nc(CO)c1F [Example 43]	> 20	> 20	> 20	> 20	0.021	0.016	> 20	> 20	116	–	–	6	27

— US8541427B2, “Phenyl-substituted 2-imino-3-methyl pyrrolo pyrimidinone compounds as BACE-1 inhibitors, compositions, and their use” (Merck, Sharp & Dohme, Corp., priority 2008, dated 2013)
